Consider three molecules from paper PMC9036655 (RSC Advances, 2021).

A word on the inhibition: it is the percentage by which the read-out fell short of the control. In general, IC50 refers to the point on the concentration scale where inhibition reaches its midpoint. For orientation: MIC means the least concentration at which growth counts as inhibited.

The structures appear in SMILES notation. Converted amounts (≈) assume the structure as drawn.

The subject of one assay is M. tuberculosis H37Rv. Put plainly: Antimycobacterial activity against M. tuberculosis H37Rv. It counts as cell-based, Mycobacterium tuberculosis. The following applies: Mycobacterium tuberculosis, H37RV, read-out: % inhibition 20 μg mL^−1, M. tuberculosis H37Rv; 20 μg mL^−1.
The test system of a further assay is A549 cells. As to the kind of experiment: Cytotoxicity, MTT assay, A549 cells. The format is cell-based, Human. To be noted: for IC50: Homo sapiens, A549, 72 h, read-out: IC50 A549; for Selectivity index A549: IC50(A549)/MIC M. tb. On the technique in general: Tetrazolium dyes change colour on reduction, which living cells bring about.
The next assay relates to Vero cells. Put plainly: Cytotoxicity, MTT assay, Vero cells. It counts as cell-based, African green monkey. To be noted: IC50(Vero)/MIC M. tb.
Assay [1] relates to Escherichia coli Esbls^−16-23. As to the kind of experiment: Antibacterial spectrum test, agar double dilution MIC. The format is cell-based.
Assay [2] has as its system Escherichia coli Esbls^−16-24. The assay is described as above. The format is cell-based.
The subject of assay [3] is Klebsiella pneumoniae Esbls^−17-11. The description is as above. It counts as cell-based.
Assay [4] deals with Klebsiella pneumoniae Esbls^−17-12. The assay is described as above. It counts as cell-based.
Assay [5] relates to Pseudomonas aeruginosa 17-2. The assay is described as above. It counts as cell-based. To be noted: 172.
Assay [6] concerns Escherichia coli ATCC25922. The assay is described as above. It counts as cell-based.

Consider `Cc1[nH]c(=O)c(CNC(=O)c2ccc([N+](=O)[O-])o2)c2c1CCCC2` [6b29, N-((1-Methyl-3-oxo-2,3,5,6,7,8-hexahydroisoquinolin-4-yl)methyl)-5-nitrofuran-2-carboxamide], for which the inhibition at 20 µg/mL in the assay with M. tuberculosis H37Rv stood at 100%. Further, in the assay with A549 cells, the IC50 is above 100 µg/mL and the “Selectivity index A549” value is above 35. Moreover, the “Selectivity index Vero” value with Vero cells is above 17.

For the molecule `Cc1[nH]c(=O)c(CNC(=O)c2ccc(C(F)(F)F)o2)c2c1CCCC2` [6b33, N-((1-Methyl-3-oxo-2,3,5,6,7,8-hexahydroisoquinolin-4-yl)methyl)-5-(trifluoromethyl)furan-2-carboxamide], in the assay on M. tuberculosis H37Rv, the inhibition at 20 µg/mL worked out at 98.3%. Also, in the assay with A549 cells, the IC50 is above 100 µg/mL and the “Selectivity index A549” value is given as above 50. Further, in the assay on Vero cells, the “Selectivity index Vero” value is above 25.

Consider `C[C@H]1COc2c(N3CCN(C)CC3)c(F)cc3c(=O)c(C(=O)O)cn1c23` [Levofloxacin tablets, Levofloxacin], for which the MIC in assay [1] was 16 µg/mL (≈ 44.3 µM); in assay [2], below 0.008 µg/mL; in assay [3], 0.03 µg/mL (≈ 0.083 µM); in assay [4], below 0.008 µg/mL; in assay [5], 16 µg/mL (≈ 44.3 µM); in assay [6], below 0.008 µg/mL.
